Consider nine compounds from US7247727B2, “Azaindole thiazolinones” (Hoffmann-La Roche Inc., priority 2004, dated 2007).

One series deals with CDK2/Cyclin E (Homo sapiens, UniProt P24941). As to the kind of experiment: CDK2/Cyclin E kinase assay (procedure as for CDK1/Cyclin B). As to conditions: CDK2/Cyclin E complex, Rb protein substrate; Ki=IC50/(1+[S]/Km). Format: biochemical. The procedure:
For the FlashPlate kinase assay, 96-well FlashPlates were coated with Rb protein at 10 μg/ml, using 100 μl per well. Plates were incubated at 4° C. overnight or at room temperature for 3 hours on a shaker. To control for nonspecific phosphorylation, one row of wells was coated with 100 μl/well coating buffer (20 mM HEPES, 0.2 M NaCl). Plates were then washed twice with wash buffer (0.01% Tween 20 in phosphate-buffered saline). Compounds to be tested (“test compounds”) were added to the wells at 5× final concentration. Reactions were initiated by immediate addition of 40 μl reaction mix (25 mM HEPES, 20 mM MgCl2, 0.002% Tween 20, 2 mM DTT, 1 μM ATP, 4 nM 33P-ATP) and a sufficient amount of enzyme to give counts that were at least 10-fold above background. Plates were incubated at room temperature on a shaker for 30 minutes. Plates were washed four times with the wash buffer, sealed, and counted on the TopCount scintillation counter (Packard Instrument Co., Downers Grove, Ill.]. The percent inhibition of Rb phosphorylation, which is a measure of the inhibition of CDK activity, was determined according to the following formula:
[formula] where “test compound” refers to the average counts per minute of the test duplicates, “nonspecific” refers to the average counts per minute when no CDK1/Cyclin B, etc., was added, and “total” refers to the average counts per minute when no compound was added. The IC50 value is the concentration of test compound that reduces by 50% the protein-kinase induced incorporation of the radiolabel under the test conditions described. The value of the inhibitor constant Ki is calculated by the following: Ki=IC50/(1+[S]/Km), where [S] is the ATP concentration and Km is Michaelis constant.
The Homogeneous Time Resolved Fluorescence (HTRF) kinase assay was carried out in 96-well polypropylene plates (BD Biosciences, Bedford, Mass.). Test compounds were first dissolved in DMSO, and then diluted in kinase assay buffer 1 (25 mM HEPES, pH7.0, 8 mM MgCl2, 1.5 mM DTT, and 162 μM ATP) with DMSO concentration at 15%. The CDK1/Cyclin B enzyme was diluted in kinase assay buffer 2 (25 mM HEPES, pH 7.0, 8 mM MgCl2, 0.003% Tween 20, 0.045% BSA, 1.5 mM DTT, and 0.675 μM Rb protein). To initiate the kinase reaction, 20 μL of compound solution was mixed with 40 μL of CDK1/Cyclin B solution in assay plates with final concentration of CDK1/Cyclin B and Rb at 0.1 μg/mL and […], respectively, and incubated at 37° C. for 30 min. […] At the completion of the incubation, 35 μL of reaction mixture was transferred to fresh 384-well black polystyrene plates (Corning Incorporated, Corning, N.Y.) and read on a fluorescent plate reader at excitation wavelength of 340 nm and emission wavelength of 665/615 nm. […]

A further series addresses CDK1/Cyclin B (Homo sapiens, UniProt P06493). As to the kind of experiment: CDK1/Cyclin B kinase assay (FlashPlate or HTRF). As to conditions: recombinant human CDK1/Cyclin B, Rb protein substrate; Ki=IC50/(1+[S]/Km). The series is classed as biochemical. The procedure: To determine inhibition of CDK1 activity, either FlashPlate™ (NEN™-Life Science Products) assay or HTRF assay was performed. Both types of kinase assays were carried out using recombinant human CDK1/Cyclin B complex. GST-cyclinB (GST-cycB) and CDK1 cDNA clones in baculovirus vectors were provided by Dr. W. Harper at the Baylor College of Medicine, Houston, Tex. Proteins were co-expressed in High Five™ insect cells and the complex was purified on glutathione Sepharose resin (Pharmacia, Piscataway, N.J.) as previously described (Harper, J. W. et al. Cell 1993, 75, 805-816). A 6x-Histidine tagged truncated form of retinoblastoma (Rb) protein (amino acid 386-928) was used as the substrate for the CDK1/Cyclin B assay (the expression plasmid was provided by Dr. Veronica Sullivan, Department of Molecular Virology, Roche Research Centre, Welwyn Garden City, United Kingdom). The Rb protein is a natural substrate for phosphorylation by CDK1 (see Herwig and Strauss Eur. J. Biochem. Vol. 246 (1997) pp. 581-601 and the references cited therein). The expression of the 62Kd protein was under the control of an IPTG inducible promoter in an M15 E. coli strain. Cells were lysed by sonication and purification was carried out by binding lysates at pH 8.0 to a Ni-chelated agarose column pretreated with 1 mM imidazole. The resin was then washed several times with incrementally decreasing pH buffers to pH 6.0, and eluted with 500 mM imidazole. Eluted protein was dialyzed against 20 mM HEPES pH 7.5, 30% glycerol, 200 mM NaCl, and 1 mM DTT. Purified Rb fusion protein stocks were quantitated for protein concentration, aliquoted, and stored at −70° C.
For the FlashPlate kinase assay, 96-well FlashPlates were coated with Rb protein at 10 μg/ml, using 100 μl per well. Plates were incubated at 4° C. overnight or at room temperature for 3 hours on a shaker. […] Plates were washed four times with the wash buffer, sealed, and counted on the TopCount scintillation counter (Packard Instrument Co., Downers Grove, Ill.]. The percent inhibition of Rb phosphorylation, which is a measure of the inhibition of CDK activity, was determined according to the following formula:
[formula] where “test compound” refers to the average counts per minute of the test duplicates, “nonspecific” refers to the average counts per minute when no CDK1/Cyclin B, etc., was added, and “total” refers to the average counts per minute when no compound was added. […] The value of the inhibitor constant Ki is calculated by the following: Ki=IC50/(1+[S]/Km), where [S] is the ATP concentration and Km is Michaelis constant.
The Homogeneous Time Resolved Fluorescence (HTRF) kinase assay was carried out in 96-well polypropylene plates (BD Biosciences, Bedford, Mass.). […]

Chain of CDK1/Cyclin B (P06493 whole entry, the tested form may be a part): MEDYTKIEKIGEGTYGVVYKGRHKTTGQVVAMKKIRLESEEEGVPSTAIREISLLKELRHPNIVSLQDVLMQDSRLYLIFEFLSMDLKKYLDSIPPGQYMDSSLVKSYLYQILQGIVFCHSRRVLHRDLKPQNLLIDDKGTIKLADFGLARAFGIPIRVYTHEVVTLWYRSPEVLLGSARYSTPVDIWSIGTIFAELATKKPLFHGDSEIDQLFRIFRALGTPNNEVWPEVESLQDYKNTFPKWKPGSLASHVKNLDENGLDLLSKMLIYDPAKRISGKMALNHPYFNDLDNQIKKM
Chain of CDK1/Cyclin B (P14635 whole entry partner, the tested form may be a part): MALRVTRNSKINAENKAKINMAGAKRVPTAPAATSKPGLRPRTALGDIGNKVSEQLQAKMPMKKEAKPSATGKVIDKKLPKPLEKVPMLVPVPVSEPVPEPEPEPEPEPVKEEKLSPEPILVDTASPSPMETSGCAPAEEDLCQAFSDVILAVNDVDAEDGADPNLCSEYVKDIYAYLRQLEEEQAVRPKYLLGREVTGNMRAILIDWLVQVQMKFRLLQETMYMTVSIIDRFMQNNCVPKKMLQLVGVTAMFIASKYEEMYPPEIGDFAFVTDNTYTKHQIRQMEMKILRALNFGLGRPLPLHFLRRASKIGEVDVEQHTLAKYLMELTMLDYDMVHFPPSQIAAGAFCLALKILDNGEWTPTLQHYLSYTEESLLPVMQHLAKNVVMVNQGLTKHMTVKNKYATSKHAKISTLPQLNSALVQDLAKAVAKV

Turning to `COc1ccccc1NC1=NC(=O)/C(=C/c2c[nH]c3ncccc23)S1` [Example 18, 2-(2-Methoxy-phenylamino)-5-[1-(1H-pyrrolo[2,3-b]pyridin-3-yl)-meth-(Z)-ylidene]-thiazol-4-one], the inhibition constant (Ki) at CDK2/Cyclin E turned out to be 187 nM; at CDK1/Cyclin B it was 1150 nM. For `Cc1ccsc1CNC1=NC(=O)/C(=C/c2c[nH]c3ncccc23)S1` [Example 10, 2-[(3-Methyl-thiophen-2-ylmethyl)-amino)-5-[1-(1H-pyrrolo[2,3-b]pyridin-3-yl)-meth-(Z)-ylidine]-thiazol-4-one], the Ki on CDK2/Cyclin E came out at 18 nM; at CDK1/Cyclin B, 48 nM.

Take `O=C1N=C(NCc2cccs2)S/C1=C\c1c[nH]c2ncccc12` [Example 1, 5-[1-(1H-Pyrrolo[2,3-b]pyridin-3-yl)-meth-(Z)-ylidine]-2-[(thiophen-2-ylmethyl)-amino]-thiazol-4-one]: the melting point lay within 243 to 246 °C. Regarding `CC(C)[C@H](CO)NC1=NC(=O)/C(=C/c2c[nH]c3ncccc23)S1` [Example 6, 2-(1-(R)-Hydroxymethyl-2-methylpropylamino)-5-[1-(1H-pyrrolo[2,3-b]pyridin-3-yl)-meth-(Z)-ylidine]-thiazol-4-one], the melting point was 269 to 271 °C. Consider `CC(=O)OC[C@H](NC1=NC(=O)/C(=C/c2c[nH]c3ncccc23)S1)c1ccccc1` [Example 7, Acetic Acid 2-[4-oxo-5-(1H-pyrrolo[2,3,b]pyridine-3-ylmethylene)-4,5-dihydro-thiazol-2-ylamino]-2-(R)-phenyl-ethyl ester], for which the melting point is 243.7 to 246.8 °C.

In turn, `O=C1N=C(N[C@@H](CO)c2ccccc2)S/C1=C\c1c[nH]c2ncccc12` [Example 3, 2-(2-Hydroxy-1-(R)-phenyl-ethylamino)-5-[1-(1H-pyrrolo[2,3-b]pyridin-3-yl)-meth-(Z)-ylidine]-thiazol-4-one] registered a melting point of 317 to 319 °C. For the compound `NC1=NC(=O)/C(=C/c2c[nH]c3ncccc23)S1` [Example 15, 2-Amino-5-[1-(1H-pyrrolo[2,3-b]pyridin-3-yl)-meth-(Z)-ylidene]-thiazol-4-one], the Ki at CDK2/Cyclin E worked out at 252 nM; on CDK1/Cyclin B it was 830 nM. In turn, `O=C1N=C(NCc2ccc(F)c(Cl)c2)S/C1=C\c1c[nH]c2ncccc12` [Example 4, 2-(3-Chloro-4-fluorobenzylamino)-5-[1-(1H-pyrrolo[2,3-b]pyridin-3-yl)-meth-(Z)-ylidine]-thiazol-4-one] registered a melting point of 318 to 320 °C. With `O=C1N=C(NC2C[C@@H]2c2ccccc2)S/C1=C\c1c[nH]c2ncccc12` (stereo partly drawn) [Example 5, 2-((1R,2S)-2-Phenyl-cyclopropylamino)-5-[1-(1H-pyrrolo[2,3-b]pyridin-3-yl)-meth-(Z)-ylidine]-thiazol-4-one], the melting point was 308 to 310 °C. In addition, the affinity on CDK2/Cyclin E corresponds to a Ki of 17 nM. Further, on CDK1/Cyclin B, the Ki turned out to be 10 nM.
